Assay results as given in patent US5129951A, “Aromatic aldehydes and alcohols as potato tuber sprout inhibitors” (priority 1991, dated 1992).
“Also recorded” adds a separate entry of the source. Read-outs that look alike come from different tables or passages of the source.

How the values were obtained:
[1] = cited from earlier work; for Temperature at Which Vapor Pressure Equals 1 mm Hg: vapor pressure 1 mm Hg
potato tubers [2] = test: Tuber texture/quality after exposure to compounds in headspace gas for 7 days (Example 1); conditions: 7 days in saturated headspace gas, 25° C.
potato tubers [3] = test: Tuber texture after removal from exposure to volatilized aromatics (Example 2); assay type: in vivo, Solanum tuberosum L. cv `Norchip`
Experimental: (§1) Each treatment consisted of placing the tubers in sealed 9.2 l flasks containing excess levels of the treatment compounds at 25° C. as in Example 1. Three tubers were then removed from each treatment after 1, 2, 4, 7, and 10 days, and placed in flasks containing fresh humidified air (free of any additional volatilized compounds) at 25° C. Control tubers were placed in sealed flasks lacking any added compounds and three were removed after 1 and 10 days. Fourteen days after removal from the sealed flasks containing treatment compounds, all tubers were examined for percentage of eyes sprouted, tuber texture, and fungal growth. Each treatment was replicated once and each experiment was repeated once.

fungi [4] = test: Fungal growth on tubers exposed to compounds in headspace gas for 7 days (Example 1); assay type: in vivo; conditions: 7 days in saturated headspace gas, 25° C.; for Fungal Growth: control ++; on Fungal growth: key: -: no fungi visible; +: = some fungi; ++: heavy fungal growth
Text: (control flasks lacked any compounds).

potato tubers [5] = test: Tuber sprouting 14 days after direct application of aromatic compounds (Example 3); assay type: in vivo, Solanum tuberosum L. cv `Norchip`; conditions: for % Eyes Sprouted: 25° C., control 98, LSD (0.05) 14
fungi [6] = test: Fungal growth on tubers after removal from exposure to volatilized aromatics (Example 2); assay type: in vivo; conditions: 14 days after removal
Experimental: as §1

potato tubers [7] = test: Tuber sprouting after removal from exposure to volatilized aromatics for 1, 2, 4, 7 or 10 days (Example 2); assay type: in vivo, Solanum tuberosum L. cv `Norchip`; conditions: 14 days after removal; for % Eyes Sprouted: 25° C., LSD (0.05) 24
Experimental: as §1

potato tubers [8] = test: Tuber texture and quality 14 days after direct application of aromatic compounds (Example 3)
[9] = Theoretical saturated headspace concentration calculated from known vapor pressures; assay type: physicochemical; conditions: calculated from known vapor pressures by Ideal Gas Law
Experimental: Because these compounds were difficult to quantitate by gas chromatography at the concentration levels in saturated headspaces, theoretical saturated concentrations were calculated by converting known vapor pressures of each compound at 25° C. to molar concentrations using the Ideal Gas Law, […], where n/V is the molar concentration, P is the partial pressure (atm), R is the Ideal Gas constant (0.0821 l atm/mol ° K.), and T is the temperature (° K.).

fungi [10] = test: Fungal growth 14 days after direct application of aromatic compounds (Example 3); assay type: in vivo
potato tubers [11] = test: Sprout inhibition of tubers exposed to compounds in headspace gas for 7 days (Example 1); assay type: in vivo, Solanum tuberosum L. cv `Norchip`; conditions: 7 days in saturated headspace gas, 25° C.; for % Eyes Sprouted: dark, control 100, LSD (0.05) 12
potato tubers [12] = test: Tuber sprouting after removal from exposure to volatilized aromatics for 1, 2, 4, 7 or 10 days (Example 2); assay type: in vivo, Solanum tuberosum L. cv `Norchip`; conditions: exposure for 10 days, 75 days after removal
plants = conditions: Putnam and Tang; cited from earlier work
potato tubers [13] = conditions: in vivo
potato tubers [14] = conditions: in vivo; remark: listed apart in the source

Compound	Temperature at Which Vapor Pressure Equals 1 mm Hg [1] [°C]	Solubility in Water at 25° C. [1]	tuber condition (potato tubers [2])	effect on fungal growth (fungi [4])	Fungal Growth (fungi [4])	% Eyes Sprouted (potato tubers [5]; 1% emulsion (dip)) [%]	% Eyes Sprouted (potato tubers [5]; 10% emulsion (dip)) [%]	Fungal Growth (fungi [6]; 7 days exposure)	Fungal Growth (fungi [6]; 10 days exposure, control +)	% Eyes Sprouted (potato tubers [7]; 1 day exposure, control 96) [%]	% Eyes Sprouted (potato tubers [7]; 2 days exposure) [%]	% Eyes Sprouted (potato tubers [7]; 4 days exposure) [%]	% Eyes Sprouted (potato tubers [7]; 7 days exposure) [%]	% Eyes Sprouted (potato tubers [7]; 10 days exposure, control 100) [%]	inhibition of tuber sprouting (potato tubers [7]; exposure for 7 or fewer days)	inhibition of tuber sprouting (potato tubers [7]; exposure for 10 days)	Concentration of Saturated Headspace at 25° C. [9] [nM]	Fungal Growth (fungi [10]; 10% emulsion (dip), control +)	effect on tuber sprouting (potato tubers [11])	% Eyes Sprouted (potato tubers [11]) [%]	further results
O=Cc1ccccc1 [Benzaldehyde]	26.2	sl. soluble	firm and appeared healthy	prevented any visible fungal growth	-	43	0	-	-	88	42	14	2	0	did not completely inhibit sprouting	completely inhibited sprouting	48000	++	completely inhibited sprouting	0	tuber firmness (potato tubers [3]; 1 day treatment, 14 days after removal): slightly soft; inhibition of sprouting (potato tubers [5]; 10% emulsion): completely inhibited sprouting without damaging the potato tubers; % Eyes Sprouted (potato tubers [5]; 100% (pure, sprayed)): 0%; Fungal Growth (fungi [6]; 1 day exposure, control +): -; Fungal Growth (fungi [6]; 2 days exposure): -; Fungal Growth (fungi [6]; 4 days exposure): -; tuber condition (potato tubers [8]; 10% emulsion): remained hard, with no necrosis or surface pitting; Tuber Texture (potato tubers [8]; 100% (pure, sprayed), control SS): S,N; Fungal Growth (fungi [10]; 10% emulsion): heavily covered with fungal growth; Fungal Growth (fungi [10]; 100% (pure, sprayed), control +): ++; sprouting (potato tubers [12]): remained unsprouted
O=C(O)c1ccccc1 [Benzoic acid]	96.0		soft to the touch	present to some extent	+												100		no significant effect on tuber sprouting; also recorded: little or no inhibition of sprouting	98	reported allelopathy (plants): allelopathic
OCC=Cc1ccccc1 [Cinnamyl alcohol]		soluble		present to some extent	+												2400		no significant effect on tuber sprouting	91	tuber condition (potato tubers [13]): slightly soft
CC=Cc1ccc(O)c(OC)c1 [Isoeugenol]				especially heavy growth	++												1300		no significant effect on tuber sprouting	89	tuber condition (potato tubers [13]): remained firm
Cc1ccc(C(C)C)c(O)c1 [Thymol]			firm and appeared healthy	prevented any visible fungal growth	-	0	0	-	-	83	60	44	6	0	did not completely inhibit sprouting	completely inhibited sprouting	2900	-	completely inhibited sprouting	0	tuber condition (potato tubers [14]): large pitted areas on the tuber surface near each eye; tuber firmness (potato tubers [3]; in vivo): slightly soft; inhibition of sprouting (potato tubers [5]; 1% emulsion): suppressed sprouting; Fungal Growth (fungi [10]; 1% emulsion (dip), control +): -
COc1cc(C=O)ccc1O [Vanillin]	107.0	sl. soluble		present to some extent	+												100		only slightly suppressed sprouting; also recorded: little or no inhibition of sprouting	87	reported allelopathy (plants): allelopathic
